The values that follow come from patent US8962631B2 (Vertex Pharmaceuticals Incorporated, priority 2010, dated 2015).

Where only a bound is given, the exact number is not on record here.

In one test the target is T1, full-length ATR (Homo sapiens, UniProt Q13535).
T1 construct: Assays were carried out at 25° C. in the presence of 5 nM full-length ATR
T1 sequence (Q13535 whole entry): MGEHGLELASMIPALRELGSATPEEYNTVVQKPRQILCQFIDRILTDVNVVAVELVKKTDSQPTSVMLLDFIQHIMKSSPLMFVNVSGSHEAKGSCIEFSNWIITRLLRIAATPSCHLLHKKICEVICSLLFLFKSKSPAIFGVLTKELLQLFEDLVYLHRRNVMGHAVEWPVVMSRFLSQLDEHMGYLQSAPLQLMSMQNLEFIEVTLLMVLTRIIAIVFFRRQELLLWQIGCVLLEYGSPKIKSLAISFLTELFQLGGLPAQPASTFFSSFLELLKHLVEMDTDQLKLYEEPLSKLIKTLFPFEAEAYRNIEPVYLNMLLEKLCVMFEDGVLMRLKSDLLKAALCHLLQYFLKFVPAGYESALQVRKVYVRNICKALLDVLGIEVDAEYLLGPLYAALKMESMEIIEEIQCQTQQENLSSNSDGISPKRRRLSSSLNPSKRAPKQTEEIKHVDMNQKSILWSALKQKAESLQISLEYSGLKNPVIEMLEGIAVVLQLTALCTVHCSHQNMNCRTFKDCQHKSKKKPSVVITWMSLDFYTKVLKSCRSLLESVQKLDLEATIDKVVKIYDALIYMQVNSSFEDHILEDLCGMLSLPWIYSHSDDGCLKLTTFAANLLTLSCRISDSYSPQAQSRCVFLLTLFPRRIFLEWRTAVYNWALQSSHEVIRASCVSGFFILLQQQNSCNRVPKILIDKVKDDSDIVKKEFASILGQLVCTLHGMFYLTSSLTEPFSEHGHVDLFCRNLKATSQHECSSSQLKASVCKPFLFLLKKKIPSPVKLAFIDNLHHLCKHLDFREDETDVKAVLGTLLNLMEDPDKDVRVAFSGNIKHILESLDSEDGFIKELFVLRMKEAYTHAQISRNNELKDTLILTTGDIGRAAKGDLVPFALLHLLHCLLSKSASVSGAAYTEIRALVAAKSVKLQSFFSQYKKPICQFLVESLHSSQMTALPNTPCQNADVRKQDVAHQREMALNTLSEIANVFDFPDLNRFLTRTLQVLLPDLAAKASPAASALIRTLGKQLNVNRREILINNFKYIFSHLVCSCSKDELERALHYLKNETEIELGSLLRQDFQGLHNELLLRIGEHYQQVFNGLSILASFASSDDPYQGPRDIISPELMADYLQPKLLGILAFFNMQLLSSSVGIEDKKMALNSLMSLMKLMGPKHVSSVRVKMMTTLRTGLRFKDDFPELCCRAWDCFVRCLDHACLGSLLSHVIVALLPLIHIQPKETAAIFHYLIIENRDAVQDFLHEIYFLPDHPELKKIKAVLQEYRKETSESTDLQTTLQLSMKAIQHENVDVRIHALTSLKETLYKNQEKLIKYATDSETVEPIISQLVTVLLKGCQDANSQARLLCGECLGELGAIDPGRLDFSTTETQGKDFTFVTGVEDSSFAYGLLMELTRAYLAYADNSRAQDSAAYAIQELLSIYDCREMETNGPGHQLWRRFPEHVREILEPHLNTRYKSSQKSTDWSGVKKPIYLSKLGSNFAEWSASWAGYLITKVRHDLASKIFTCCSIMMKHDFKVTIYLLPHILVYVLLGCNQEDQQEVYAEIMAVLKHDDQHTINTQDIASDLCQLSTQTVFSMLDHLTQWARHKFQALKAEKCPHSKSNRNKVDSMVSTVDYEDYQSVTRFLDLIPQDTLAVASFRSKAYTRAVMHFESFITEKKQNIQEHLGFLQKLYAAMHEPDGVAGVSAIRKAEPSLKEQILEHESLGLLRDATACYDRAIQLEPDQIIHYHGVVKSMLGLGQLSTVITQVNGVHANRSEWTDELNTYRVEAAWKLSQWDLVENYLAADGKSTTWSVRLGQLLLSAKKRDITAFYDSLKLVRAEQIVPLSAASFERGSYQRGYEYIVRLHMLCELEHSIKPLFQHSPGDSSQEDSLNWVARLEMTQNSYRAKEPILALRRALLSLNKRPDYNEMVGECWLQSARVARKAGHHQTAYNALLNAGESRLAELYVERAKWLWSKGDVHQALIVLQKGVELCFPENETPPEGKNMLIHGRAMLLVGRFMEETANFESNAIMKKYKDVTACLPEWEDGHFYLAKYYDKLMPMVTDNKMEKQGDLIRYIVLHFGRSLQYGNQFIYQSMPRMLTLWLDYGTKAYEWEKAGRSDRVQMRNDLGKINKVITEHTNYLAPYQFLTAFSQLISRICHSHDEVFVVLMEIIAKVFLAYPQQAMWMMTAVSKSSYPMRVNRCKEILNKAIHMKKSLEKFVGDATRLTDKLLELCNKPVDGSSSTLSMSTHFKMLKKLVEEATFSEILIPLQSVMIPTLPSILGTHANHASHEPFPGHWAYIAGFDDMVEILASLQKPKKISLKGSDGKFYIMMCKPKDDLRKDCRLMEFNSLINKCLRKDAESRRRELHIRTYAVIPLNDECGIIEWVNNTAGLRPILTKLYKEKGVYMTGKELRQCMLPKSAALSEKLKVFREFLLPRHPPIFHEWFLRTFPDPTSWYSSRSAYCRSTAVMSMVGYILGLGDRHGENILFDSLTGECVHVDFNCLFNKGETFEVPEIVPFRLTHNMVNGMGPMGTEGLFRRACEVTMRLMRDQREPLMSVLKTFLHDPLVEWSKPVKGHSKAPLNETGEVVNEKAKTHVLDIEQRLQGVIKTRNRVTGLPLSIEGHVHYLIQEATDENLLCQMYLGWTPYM
As to the kind of experiment: ATR Inhibition Assay (radioactive-phosphate incorporation). The format is biochemical. Particulars: Ki(app); 10 μM ATP, 800 μM target peptide, 5 nM full-length ATR, 25° C. The procedure: Compounds were screened for their ability to inhibit ATR kinase using a radioactive-phosphate incorporation assay. Assays were carried out in a mixture of 50 mM Tris/HCl (pH 7.5), 10 mM MgCl2 and 1 mM DTT. Final substrate concentrations were 10 μM [γ-33P]ATP (3 mCi 33P ATP/mmol ATP, Perkin Elmer) and 800 μM target peptide ([…] (SEQ. ID NO: 1)).
Assays were carried out at 25° C. in the presence of 5 nM full-length ATR. An assay stock buffer solution was prepared containing all of the reagents listed above, with the exception of ATP and the test compound of interest. 13.5 μL of the stock solution was placed in a 96 well plate followed by addition of 2 μL of DMSO stock containing serial dilutions of the test compound (typically starting from a final concentration of 15 μM with 3-fold serial dilutions) in duplicate (final DMSO concentration 7%). The plate was pre-incubated for 10 minutes at 25° C. and the reaction initiated by addition of 15 μL [γ-33P]ATP (final concentration 10 μM).
The reaction was stopped after 24 hours by the addition of 30 μL 0.1M phosphoric acid containing 2 mM ATP. A multiscreen phosphocellulose filter 96-well plate (Millipore, Cat no. MAPHN0B50) was pretreated with 100 μL 0.2M phosphoric acid prior to the addition of 45 μL of the stopped assay mixture. The plate was washed with […] 0.2M phosphoric acid. After drying, 100 μL Optiphase ‘SuperMix’ liquid scintillation cocktail (Perkin Elmer) was added to the well prior to scintillation counting (1450 Microbeta Liquid Scintillation Counter, Wallac).
After removing mean background values for all of the data points, Ki(app) data were calculated from non-linear regression analysis of the initial rate data using the Prism software package (GraphPad Prism version 3.0cx for Macintosh, GraphPad Software, San Diego Calif., USA).
As to `Cc1ccc2nc(-c3nc(C(=O)NCc4ccco4)cnc3N)[nH]c2c1` [II-68, 5-Amino-N-(2-furylmethyl)-6-(6-methyl-1H-benzimidazol-2-yl)pyrazine-2-carboxamide], the Ki lay in the range of 0.5 to 1 µM.

Consider `COCC#Cc1cnc(N)c(-c2nc3ccc(C)cc3[nH]2)n1` [II-83, 5-(3-Methoxyprop-1-ynyl)-3-(6-methyl-1H-benzimidazol-2-yl)pyrazin-2-amine], for which the Ki fell in the range of 0.5 to 1 µM.

In the case of `Cc1ccc2nc(-c3nc(Oc4c(F)cccc4F)cnc3N)[nH]c2c1` [II-22, 5-(2,6-Difluorophenoxy)-3-(6-methyl-1H-benzimidazol-2-yl)pyrazin-2-amine], the Ki lay in the range of 1 to 8 µM.

`Cc1ccc2nc(-c3nc(C(=O)NCC(=O)C(C)(C)C)cnc3N)[nH]c2c1` [II-62, 5-Amino-N-(3,3-dimethyl-2-oxo-butyl)-6-(6-methyl-1H-benzimidazol-2-yl)pyrazine-2-carboxamide]: the Ki fell in the range of 1 to 8 µM.

Take `Cc1ccc2nc(-c3nc(C(=O)Nc4cccnc4)cnc3N)[nH]c2c1` [II-42, 5-Amino-6-(6-methyl-1H-benzimidazol-2-yl)-N-(3-pyridyl)pyrazine-2-carboxamide]: the Ki was 0.5 to 1 µM.

On to `Cc1ccc2nc(-c3nc(C(=O)NC4CCC4)cnc3N)[nH]c2c1` [II-74, 5-Amino-N-cyclobutyl-6-(6-methyl-1H-benzimidazol-2-yl)pyrazine-2-carboxamide], for which the Ki was in the range of 1 to 8 µM.

On to `Cc1ccc2nc(-c3nc(C(=O)NCC4CCCO4)cnc3N)[nH]c2c1` (centres unmarked) [II-52, 5-Amino-6-(6-methyl-1H-benzimidazol-2-yl)-N-(tetrahydrofuran-2-ylmethyl)pyrazine-2-carboxamide], for which the Ki was no more than 0.5 µM.

For the compound `Nc1ncc(Oc2ccccc2)nc1-c1nc2ccccc2[nH]1` [II-7, 3-(1H-Benzimidazol-2-yl)-5-phenoxy-pyrazin-2-amine], the Ki lay in the range of 0.5 to 1 µM.

For the compound `Nc1ncc(Sc2cccc(Cl)c2)nc1-c1nc2ccccc2[nH]1` [II-39, 3-(1H-Benzimidazol-2-yl)-5-(3-chlorophenyl)sulfanyl-pyrazin-2-amine], the Ki was in the range of 1 to 8 µM.

With `Cc1ccc2nc(-c3nc(Oc4ccc(C(=O)O)cc4)cnc3N)[nH]c2c1` [II-26, 4-[5-Amino-6-(6-methyl-1H-benzimidazol-2-yl)pyrazin-2-yl]oxybenzoic acid], the Ki is no more than 0.5 µM.

Consider `Cc1ccc2nc(-c3nc(C(=O)NCCC(F)(F)F)cnc3N)[nH]c2c1` [II-73, 5-Amino-6-(6-methyl-1H-benzimidazol-2-yl)-N-(3,3,3-trifluoropropyl)pyrazine-2-carboxamide], for which the Ki lay in the range of 0.5 to 1 µM.

`Cc1ccc2nc(-c3nc(/C=C/Cc4ccccc4)cnc3N)[nH]c2c1`: the Ki lay in the range of 1 to 8 µM.

For the compound `Cc1ccc2nc(-c3nc(C#CCN4CCS(=O)(=O)CC4)cnc3N)[nH]c2c1` [II-85, 5-[3-(1,1-Dioxo-1,4-thiazinan-4-yl)prop-1-ynyl]-3-(6-methyl-1H-benzimidazol-2-yl)pyrazin-2-amine], the Ki was no more than 0.5 µM.

With `C#CCNC(=O)c1cnc(N)c(-c2nc3ccc(C)cc3[nH]2)n1` [II-54, 5-Amino-6-(6-methyl-1H-benzimidazol-2-yl)-N-prop-2-ynyl-pyrazine-2-carboxamide], the Ki is no more than 0.5 µM.

For `Cc1ccc2nc(-c3nc(C(=O)NCc4ccccc4)cnc3N)[nH]c2c1` [II-43, 5-Amino-N-benzyl-6-(6-methyl-1H-benzimidazol-2-yl)pyrazine-2-carboxamide], the Ki was no more than 0.5 µM.

As for `Cc1ccc2nc(-c3nc(C(=O)Nc4ccc(N5CCN(C)CC5)nc4)cnc3N)[nH]c2c1` [II-45, 5-Amino-6-(6-methyl-1H-benzimidazol-2-yl)-N-[6-(4-methylpiperazin-1-yl)-3-pyridyl]pyrazine-2-carboxamide], the Ki is 1 to 8 µM.

As to `Nc1ncc(Nc2ccncc2)nc1C(=O)Nc1ccccc1` [II-6, 3-Amino-N-phenyl-6-(4-pyridylamino)pyrazine-2-carboxamide], the Ki was no more than 0.5 µM.

Take `Nc1ncc(C#CCO)nc1-c1nnc(-c2ccccc2)o1` [II-90, 3-[5-amino-6-(5-phenyl-1,3,4-oxadiazol-2-yl)pyrazin-2-yl]prop-2-yn-1-ol]: the Ki lay in the range of 1 to 8 µM.

Consider `Nc1ncc(Nc2cccc(F)c2)nc1C(=O)Nc1ccccc1` [II-4, 3-Amino-6-(3-fluoroanilino)-N-phenyl-pyrazine-2-carboxamide], for which the Ki is no more than 0.5 µM.

For `Cc1ccc2nc(-c3nc(C(=O)NCC(=O)N(C)C)cnc3N)[nH]c2c1` [II-61, 5-Amino-N-[2-(dimethylamino)-2-oxo-ethyl]-6-(6-methyl-1H-benzimidazol-2-yl)pyrazine-2-carboxamide], the Ki was in the range of 1 to 8 µM.

`COC(=O)c1cnc(N)c(-c2nc3ccc(C)cc3[nH]2)n1` [II-47, Methyl 5-amino-6-(6-methyl-1H-benzo[d]imidazol-2-yl)pyrazine-2-carboxylate]: the Ki is no more than 0.5 µM.

On to `Nc1ncc(Nc2cccnc2)nc1C(=O)Nc1ccccc1` [II-5, 3-Amino-N-phenyl-6-(3-pyridylamino)pyrazine-2-carboxamide], for which the Ki is no more than 0.5 µM.

As for `Cc1ccc2nc(-c3nc(C(=O)N(C)c4ccccc4)cnc3N)[nH]c2c1` [II-44, 5-Amino-N-methyl-6-(6-methyl-1H-benzimidazol-2-yl)-N-phenyl-pyrazine-2-carboxamide], the Ki is 0.5 to 1 µM.

For the compound `Cc1ccc2nc(-c3nc(Oc4cccnc4)cnc3N)[nH]c2c1` [II-29, 3-(6-Methyl-1H-benzimidazol-2-yl)-5-(3-pyridyloxy)pyrazin-2-amine], the Ki was in the range of 0.5 to 1 µM.

Take `Cc1ccc2nc(-c3nc(C(=O)NC(C)c4ccccc4)cnc3N)[nH]c2c1` (stereo in doubt) [II-57, 5-Amino-6-(6-methyl-1H-benzimidazol-2-yl)-N-[(1R)1-phenylethyl]pyrazine-2-carboxamide]: the Ki fell in the range of 1 to 8 µM.

Turning to `Cc1ccc2nc(-c3nc(C(=O)N4CCOCC4)cnc3N)[nH]c2c1` [II-53, [5-Amino-6-(6-methyl-1H-benzimidazol-2-yl)pyrazin-2-yl]-morpholino-methanone], the Ki lay in the range of 1 to 8 µM.

Take `Nc1ncc(O[C@@H]2CC[C@@H](O)C2)nc1-c1nc2ccccc2[nH]1` (relative stereo) [II-36, trans-3-((5-Amino-6-(1H-benzo[d]imidazol-2-yl)pyrazin-2-yl)oxy)cyclopentanol]: the Ki lay in the range of 0.5 to 1 µM.

As to `C/C=C/c1cnc(N)c(-c2nc3ccc(C)cc3[nH]2)n1` [II-78, 3-(6-Methyl-1H-benzimidazol-2-yl)-5-[(E)-prop-1-enyl]pyrazin-2-amine], the Ki fell in the range of 0.5 to 1 µM.

For `Cc1ccc2nc(-c3nc(C(=O)NCC4CC4)cnc3N)[nH]c2c1` [II-56, 5-Amino-N-(cyclopropylmethyl)-6-(6-methyl-1H-benzimidazol-2-yl)pyrazine-2-carboxamide], the Ki was no more than 0.5 µM.

Consider `Cc1ccc2nc(-c3nc(C(=O)NCCC#N)cnc3N)[nH]c2c1` [II-77, 5-Amino-N-(2-cyanoethyl)-6-(6-methyl-1H-benzimidazol-2-yl)pyrazine-2-carboxamide], for which the Ki is no more than 0.5 µM.

Take `COC/C=C/c1cnc(N)c(-c2nc3ccc(C)cc3[nH]2)n1` [II-80, 5-[(E)-3-Methoxyprop-1-enyl]-3-(6-methyl-1H-benzimidazol-2-yl)pyrazin-2-amine]: the Ki lay in the range of 1 to 8 µM.

Turning to `Nc1ncc(OCCO)nc1-c1nc2ccccc2[nH]1` [II-14, 2-[5-Amino-6-(1H-benzimidazol-2-yl)pyrazin-2-yl]oxyethanol], the Ki is 1 to 8 µM.

Turning to `Cc1ccc2nc(-c3nc(C#CCNC(N)=O)cnc3N)[nH]c2c1` [II-86, 3-[5-Amino-6-(6-methyl-1H-benzimidazol-2-yl)pyrazin-2-yl]prop-2-ynylurea], the Ki was 1 to 8 µM.

As for `Nc1ncc(Sc2ccccc2)nc1C(=O)Nc1ccccc1` [II-37, 3-Amino-N-phenyl-6-phenylsulfanyl-pyrazine-2-carboxamide], the Ki was in the range of 1 to 8 µM.

Staying with this test, now noted: at 15 uM compound; read-out: percent inhibition against ATR.
Broadly, the inhibition is the relative decrease from the control value, in per cent. Consider `Cc1ccc2nc(-c3nc(Oc4cccc(C#N)c4)cnc3N)[nH]c2c1` [II-31, 3-[5-Amino-6-(6-methyl-1H-benzimidazol-2-yl)pyrazin-2-yl]oxybenzonitrile], for which the inhibition at 15 µM is 15 to 24%.

In the case of `Cc1cccc(Oc2cnc(N)c(-c3nc4ccccc4[nH]3)n2)c1` [II-11, 3-(1H-Benzimidazol-2-yl)-5-(3-methylphenoxy)pyrazin-2-amine], the inhibition at 15 µM lay in the range of 15 to 24%.

Consider `Cc1ccc2nc(-c3nc(OCCN4CCCCC4)cnc3N)[nH]c2c1` [II-27, 3-(6-Methyl-1H-benzimidazol-2-yl)-5-[2-(1-piperidyl)ethoxy]pyrazin-2-amine], for which the inhibition at 15 µM lay within 25 to 45%.

The same test, now with this note: at 30 uM compound; read-out: percent inhibition against ATR.
As for `Cc1ccc2nc(-c3nc(Oc4ccccc4Cl)cnc3N)[nH]c2c1` [II-21, 5-(2-Chlorophenoxy)-3-(6-methyl-1H-benzimidazol-2-yl)pyrazin-2-amine], the inhibition at 30 µM lay in the range of 40 to 50%.
